Key:
[1] = system: Staphylococcus aureus NCTC 10442; assay: Blocking experiments with Nα,Nε-diacetyl-Lys-D-Ala-D-Ala in microdilution; assay type: cell-based; settings: at least 100-fold excess of Nα,Nε-Diacetyl-Lys-D-Ala-D-Ala, pre-incubation minimum 1 hour at room temperature
Method: Antimicrobial testing – Microdilution
Antimicrobial testing was performed according to CLSI and EUCAST guidelines in microdilution.8-10 Therefore, all tested substances as well as controls were dissolved in water in different concentrations and serially diluted in MHB II (cation adjusted) on the 96-well plate. A logarithmic growing, overnight culture of the respective bacterial strain was used and adjusted to a McFarland corresponding to 1 × 10^8 cfu/ml. Afterwards the bacterial suspension was diluted to 1 ×10^6 cfu/ml and loaded on the 96-well polypropylene plates, resulting in a final bacterial concentration of 5 × 10^5 cfu/ml. After an incubation at 35 ± 1 °C for 18-20 hours (re-controlled after 24 hours) the MIC was determined as the lowest concentration without visible growth as described previously.11 For direct comparison of the tested substances, all results were calculated in mg/ml and mol/ml afterwards.
For blocking experiments with NΑ,NΕ-DIACETYL-LYS-D-ALA-D-ALA the tested substances were incubated directly on the dilution plate with at least 100-fold excess of Nα,Nε-Diacetyl-Lys-D-Ala-D-Ala for a minimum of 1 hour at room temperature. Afterwards, the procedure was performed as described above. As further control substance, the glycopeptide antibiotic teicoplanin was evaluated. […] Resistance development in S. aureus was determined by passaging bacteria in increasing amounts of vancomycin, FU002 or, as control, fusidic acid. In principle, tubes with twofold dilutions of the compounds in 1 ml Muller Hinton broth were inoculated 1:100 with bacterial suspension. The tubes were then incubated for 24 h at 37 °C under shaking. After each passage, the tube with the highest compound concentration showing bacterial growth was used to inoculate the tubes of the next passage (1:100). The tube with the lowest compound concentration showing no growth was defined as the passage MIC. […]
For the validation of possible side effects provoked by the conjugates, the cytotoxic effect of the lead candidate FU002 on human cells was assessed in a colorimetric viability assay. […]

human erythrocytes = assay: Hemolysis assay; assay type: cell-based; settings: up to a concentration of 640 µg/ml; 120 min at 37 °C; absorption at 554 nm; 1% Triton X-100 as positive control
Method: For hemolysis studies, blood from four different, fasted men were taken to determine the hemoglobin release. Erythrocytes were purified centrifuging blood at 2500 rpm for 3 min. The remaining pellet was washed with PBS and centrifuged again. This process was repeated until the supernatant remained clear.
For the hemolysis assay, v-bottom plates were used. FU002 was tested in duplicates in three different assays. As positive control, a 1% Triton® in 0.9%-NaCl solution was used.
FU002 was serial diluted on the plate, resulting in 50 µl of a final concentration of 640 µg/ml to 1.25 µg/ml. Every well contained 50 µl of the purified erythrocytes. […] 50 µl of the supernatant were transferred to a flat-bottom plate and absorption was measured at 554 nm.
Hemolysis was calculated as followed: […]
Cobra Auto γ-Counter, (Packard Bioscience, USA) in comparison with standards. The tissue-associated activity was related to the total injected dose (ID) and expressed as a percentage of the total injected dose per gram of tissue (%ID/g). […]
Mice were infected by intravenous application of the bacterial inoculum via the tail vein. […] During infection, mice were scored twice daily and sacrificed at day 4 post infection and livers harvested. […] Significant differences in the CFU of the livers were determined with Kruskal-Wallis test (software: GraphPad Prism 5.0).

| SMILES | effect of D-Ala-D-Ala binding motif on antibiotic activity [1] | hemolytic activity (human erythrocytes) |
| --- | --- | --- |
| CC(C)C[C@H](C(=O)N[C@H]1C(=O)N[C@@H](CC(N)=O)C(=O)N[C@H]2C(=O)N[C@H]3C(=O)N[C@H](C(=O)N[C@H](C(=O)O)c4cc(O)cc(O)c4-c4cc3ccc4O)[C@H](O)c3ccc(c(Cl)c3)Oc3cc2cc(c3O[C@@H]2O[C@H](CO)[C@@H](O)[C@H](O)[C@H]2O[C@H]2C[C@](C)(N)[C@H](O)[C@H](C)O2)Oc2ccc(cc2Cl)[C@H]1O)N(C)C(=O)C1CCC(CN2C(=O)CC(SC[C@H](NC(=O)[C@H](CCCNC(=N)N)NC(=O)[C@H](CCCNC(=N)N)NC(=O)[C@H](CCCNC(=N)N)NC(=O)[C@H](CCCNC(=N)N)NC(=O)[C@H](CCCNC(=N)N)NC(=O)[C@@H](N)CCCNC(=N)N)C(N)=O)C2=O)CC1 (stereo partly shown) [FU002] | preserves its activity | no relevant hemolytic activity |
| CN[C@H](CC(C)C)C(=O)N[C@H]1C(=O)N[C@@H](CC(N)=O)C(=O)N[C@H]2C(=O)N[C@H]3C(=O)N[C@H](C(=O)N[C@H](C(=O)O)c4cc(O)cc(O)c4-c4cc3ccc4O)[C@H](O)c3ccc(c(Cl)c3)Oc3cc2cc(c3O[C@@H]2O[C@H](CO)[C@@H](O)[C@H](O)[C@H]2O[C@H]2C[C@](C)(N)[C@H](O)[C@H](C)O2)Oc2ccc(cc2Cl)[C@H]1O [vancomycin] | suppresses the antibiotic activity | no relevant hemolytic activity |
